The values below come from US4839355A, “Tricyclic-pyridinylquinoline compounds, their preparation and use” (Sterling Drug Inc., priority 1988, dated 1989).

Broadly, the half-life is the time in which the quantity being followed falls by half. Read a low half-life as fast loss.

For one data set, the system named is Micrococcus luteus. Nature of the data set: In vitro antimicrobial activity, microplate dilution MIC, Micrococcus luteus. The class given is cell-based. The settings on record: 10^5 microorganism/ml, read-out: MIC (minimal inhibitory concentration), ML. On the procedure: (§1) The in vitro antimicrobial activity of the compounds of the invention was determined by a microplate dilution procedure. Bacterial cultures were grown in Meuller Hintom II (cation supplemented) broth (S. aureus, S. faecalis, M. luteus, E. coli and P. aeruginosa), Brain Heart Infusion (BHI) broth supplemented with 10% heat inactivated horse serum (S. penumoniae) or BHI broth supplemented with 5 mcg/ml Hemin and 0.5 mcg/ml vitamin K (B. fragilis) at 37° C. for 18-24 hrs. The cultures were grown under aerobic conditions with the exception of B. fragilis which was grown 48 hrs. under anaerobic conditions (atmosphere 5% CO2, 10% H2 and 85% N2). Resulting suspensions were diluted 1/10 in the appropriate broth or used undiluted for the inoculum. Aqueous solutions of the compounds of the invention were solubilized in dimethylsulfoxide (DMSO) at the desired concentration and 200 mcl were dispensed into the first row of wells of a sterile microplate. The compounds were then serially diluted two-fold in DMSO to give a working stock concentration range plate. The last row of wells was left compound-free receiving only DMSO to serve as a growth control. Five mcl from each well of the working stock plate was transferred to corresponding wells of a separate plate containing 95 mcl/well of the appropriate broth. All dilutions were made with either an automated dilutor or manually. The wells of microplate containing the desired compound concentrations and compound-free growth controls in broth were then inoculated using the MIC 2000 inoculator which delivers 1.5 mcl/well to give a final inoculum level of 10^4 microorganism/well or 10^5 microorganism/ml. Plates were incubated as described above and read for visible growth. The minimal inhibitory concentration (MIC: expressed in mcg/ml) of each compound tested against each test microorganism was determined as the lowest concentration of compound which prevents visible microbial growth.

Another data set relates to Staphylococcus aureus. As to the kind of experiment: In vitro antimicrobial activity, microplate dilution MIC, Staphylococcus aureus. The class given is cell-based. On the procedure:
as §1

The subject of a further data set is Escherichia coli. Nature of the data set: In vitro antimicrobial activity, microplate dilution MIC, Escherichia coli. The class given is cell-based. The following applies: 10^5 microorganism/ml, read-out: MIC (minimal inhibitory concentration), EC. On the procedure:
as §1

The test system of the next data set is Pseudomonas aeruginosa. Nature of the data set: In vitro antimicrobial activity, microplate dilution MIC, Pseudomonas aeruginosa. The class given is cell-based. The following applies: 10^5 microorganism/ml, read-out: MIC (minimal inhibitory concentration), PA. On the procedure: as §1
The next data set concerns bacteria. Nature of the data set: In vitro antimicrobial activity, overall comparison over the bacterial panel. The class given is cell-based. The settings on record: Table I MICs. On the procedure: as §1
The subject of the next data set is Streptococcus faecalis. Nature of the data set: In vitro antimicrobial activity, microplate dilution MIC, Streptococcus faecalis. The data set is classed as cell-based. The settings on record: Enterococcus faecalis, Streptococcus faecalis, 10^5 microorganism/ml, read-out: MIC (minimal inhibitory concentration), SF. As to the method:
as §1

Data set [1] can be described thus: Serum levels in monkeys after oral dosing. The class given is in vivo. The settings on record: 25 mg/kg oral.
The test system of another data set is Staph. aureus. As to the kind of experiment: In vivo antibacterial activity in female mice, Staph. aureus infection. Also on record: species or system Staphylococcus aureus. The settings on record: Staphylococcus aureus, 168 h, mouse, one-half hour postinfection, deaths over seven days. As to the method: (§2) The in vivo antibacterial activity of the compounds of the invention was determined in female mice, 18-20 grams each. Aqueous solutions of the compounds to be tested were prepared by dissolving the free acid form in dilute sodium hydroxide and diluting the solution with distilled water to the desired concentration.
(§3) Cultures of E. coli were grown in brain heart infusion broth, and the mice were inoculated intraperitoneally with 0.5 ml of the bacterial test inoculum suspended in saline. Cultures of Staph. aureus were thawed from frozen pooled stocks and mixed with 5% mucin. A 0.5 ml preparation was used to infect mice by i.p. inoculation.
(§4) The mice were medicated subcutaneously (sc) or orally (po) with 0.5 ml of the test compound solution one-half hour postinfection. Deaths were recorded daily for seven days. Fifty percent protective dose values (PD50) were calculated using probit analyis.

The next data set concerns Streptococcus pneumoniae. Nature of the data set: In vitro antimicrobial activity, microplate dilution MIC, Streptococcus pneumoniae. The class given is cell-based. The following applies: 10^5 microorganism/ml, 10% horse serum in BHI broth, read-out: MIC (minimal inhibitory concentration), SP. As to the method:
as §1

The next data set deals with E. coli. As to the kind of experiment: In vivo antibacterial activity in female mice, E. coli infection. On the set-up: species or system Escherichia coli. The following applies: mouse; for ED50: Escherichia coli, 168 h, one-half hour postinfection, deaths over seven days. On the procedure:
as §2, §3, §4

A further data set concerns Bacteroides fragilis. Nature of the data set: In vitro antimicrobial activity, microplate dilution MIC, Bacteroides fragilis. The data set is classed as cell-based. The following applies: 10^5 microorganism/ml, anaerobic, read-out: MIC (minimal inhibitory concentration), BF. As to the method: as §1
The mark [2] stands for this setting: Staph. aureus, from Table I MICs.

In brackets after ≈: the same amount, converted by molar mass. Read-outs that look alike come from different tables or passages of the source.

Take `Cc1cc(-c2c(F)cc3c(=O)c(C(=O)O)cn4c3c2OC[C@@H]4C)cc(C)n1` [B, (S)-10-(2,6-Dimethyl-4-pyridinyl)-9-fluoro-3-methyl-7-oxo-2,3-dihydro-7H-pyrido[1,2,3-de][1,4]benzoxazine-6-carboxylic acid]: the MIC with Micrococcus luteus worked out at 0.25 µg/mL (≈ 0.679 µM); in the data set with Staphylococcus aureus (Staphylococcus aureus, in vitro, 10^5 microorganism/ml, read-out: MIC (minimal inhibitory concentration), SA), 0.008 µg/mL (≈ 0.0217 µM); in the data set with Escherichia coli it was 0.03 µg/mL (≈ 0.0814 µM); with Pseudomonas aeruginosa, 4 µg/mL (≈ 10.9 µM); in the data set with Streptococcus faecalis, 0.06 µg/mL (≈ 0.163 µM); with Streptococcus pneumoniae it was 0.03 µg/mL (≈ 0.0814 µM). In addition, the MIC in the data set with Bacteroides fragilis came to 0.25 µg/mL (≈ 0.679 µM). The “in vitro activity relative to compound P” value in the data set with Staphylococcus aureus (setting [2]) is listed as “thirty times as active as compound P”. In addition, the “in vitro activity relative to compound Q” value in the data set with Staphylococcus aureus (setting [2]) was “four times as active as compound Q”. Also, in the data set on bacteria, the “in vitro activity compared with prior art compounds P and Q” value is “substantilly more active than the prior art compounds (P and Q) against all of the organisms except E. coli and P. aeruginosa”. Further, in data set [1], the serum levels result is “high and prolonged serum levels”. In data set [1] (monkey, serum), this compound gave a half-life of 16 h. Further, the Cmax in [1] (monkey, serum, read-out: maximum concentration (serum)) was found to be 25000 ng/mL. Further, in data set [1] (monkey, serum, read-out: time of maximum concentration (serum)), the Tmax worked out at 3.5 h. Also, the ED50 came out at 0.03 mg/kg with Staph. aureus (po, read-out: PD50 (fifty percent protective dose), Staph. aureus, po); 0.02 mg/kg with Staph. aureus (sc, read-out: PD50 (fifty percent protective dose), Staph. aureus, sc); 3 mg/kg in the data set on E. coli (po, read-out: PD50 (fifty percent protective dose), E. coli, po); 1.4 mg/kg in the data set on E. coli (sc, read-out: PD50 (fifty percent protective dose), E. coli, sc). For the same compound, in the data set with E. coli (Table II), the “in vivo activity against E. coli compared with compounds P and Q” value is “approximately equal in activity to compound Q and slightly less active than compound P against E. coli”.
